Assay results from ChEMBL document CHEMBL1201862, “PubChem BioAssay data set” (2004).
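How tested: cells in 96-well plates exposed to compound for 48 hours at five concentrations. GI50: concentration for 50% inhibition of growth.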 Active and inactive are the calls of the source. Rule as the data show it: active = GI50 up to about 1.1 µM and inactive = higher.

Experiments:
Assay in all cases: growth of human tumour cells (NCI), 48 h
KM-20L2 = tested on: KM-20L2
RXF 631 = tested on: RXF 631
DMS-114 = tested on: DMS-114
DU-145 = tested on: DU-145
Hs-578T = tested on: Hs-578T
MDA-MB-231 = tested on: MDA-MB-231
MDA-MB-435 = tested on: MDA-MB-435
MDA-N = tested on: MDA-N
T47D = tested on: T47D

Row | SMILES | GI50 (KM-20L2) | GI50 (RXF 631) | GI50 (DMS-114) | also measured
1 | CC(=O)OC1/C=C(\C)C(OC(C)=O)C/C=C(/C)CCC2C(/C=C/C1=O)C2(C)C (stereo unspecified) | > 100 µM (inactive) | > 100 µM (inactive) | – | –
2 | S=P1(N2CCCCC2)Oc2ccc3ccccc3c2-c2c(ccc3ccccc23)O1 | > 78.9 µM (inactive) | – | > 83 µM (inactive) | –
3 | CSc1nc2nc(C)c(C)nc2c(=O)[nH]1 | > 100 µM (inactive) | – | > 100 µM (inactive) | –
4 | O=C1CCC2COc3ccc(O)c1c32 (stereo unspecified) | > 100 µM (inactive) | – | > 100 µM (inactive) | –
5 | O=C1N(C2CCCCC2)CC12CCCCC2 | > 100 µM (inactive) | > 100 µM (inactive) | > 100 µM (inactive) | –
6 | COc1ccc2c(c1)OCCC1=C2SCC2(C)CCN=C12 (stereo unspecified) | 36.1 µM (inactive) | – | 92 µM (inactive) | –
7 | CCC1=CCN(c2ccc(C)cc2)OC1c1ccc(OC)cc1 (stereo unspecified) | 66.5 µM (inactive) | 52.4 µM (inactive) | > 100 µM (inactive) | –
8 | c1ccc2c(c1)nnn2CNc1ccc(N2CCOCC2)cc1 | > 100 µM (inactive) | – | > 100 µM (inactive) | –
9 | CCOC(=O)/C(=C/c1ccc[nH]1)P(=O)(OCC)OCC | > 100 µM (inactive) | > 100 µM (inactive) | > 100 µM (inactive) | –
10 | O=C(O)CNS(=O)(=O)c1ccc(NC(=O)c2ccc(F)cc2)cc1 | > 100 µM (inactive) | > 100 µM (inactive) | – | –
11 | C(=C/c1nc2ccccc2o1)/c1ccc2c(c1)OCO2 | 6.61 µM (inactive) | – | 16.9 µM (inactive) | –
12 | O=C1NC2OCC(O)C(O1)C2O (stereo unspecified) | > 100 µM (inactive) | > 100 µM (inactive) | > 100 µM (inactive) | –
13 | COc1ccc(OC)c(/C=C/NC=O)c1 | > 100 µM (inactive) | – | > 100 µM (inactive) | GI50 (DU-145): > 100 µM (inactive)
14 | COc1ccc(OCC(C)(C)O)cc1 | > 100 µM (inactive) | – | > 100 µM (inactive) | –
15 | C(=C\c1csnn1)/c1cccnc1 | > 100 µM (inactive) | 81.7 µM (inactive) | > 100 µM (inactive) | –
16 | C[C@]12CC[C@H](OC3CCCCO3)CC1=CC[C@@H]1C2CC[C@]2(C)/C(=N/OCCC#N)CCC12 (stereo partly specified) | 3.78 µM (inactive) | 33.6 µM (inactive) | 4.76 µM (inactive) | –
17 | CCCCCCCCCCCC(=O)OCC(C[As](=O)(O)O)OC(=O)CCCCCCCCCCC (stereo unspecified) | 5.66 µM (inactive) | – | 1.65 µM (inactive) | GI50 (DU-145): 17.5 µM (inactive); GI50 (Hs-578T): 4.2 µM (inactive); GI50 (MDA-MB-231): 4.54 µM (inactive); GI50 (MDA-MB-435): 3.46 µM (inactive); GI50 (MDA-N): 4.48 µM (inactive); GI50 (T47D): 14.7 µM (inactive)
18 | CN(C)/N=C(/c1nc2ccc(Cl)cc2nc1O)C(O)c1ccc(C(O)/C(=N\N(C)C)c2nc3ccc(Cl)cc3nc2O)cc1 (stereo unspecified) | 84.9 µM (inactive) | 91.4 µM (inactive) | 53.7 µM (inactive) | –
19 | CCOc1ccc(NC(=O)C(=O)CC(=O)c2c(C)[n+]([O-])c3ccccc3[n+]2[O-])cc1 | > 100 µM (inactive) | > 100 µM (inactive) | > 100 µM (inactive) | –
20 | COc1cc(C2C(C(=O)NCc3ccccc3)=C(C)NC(C)=C2C(=O)NCc2ccccc2)ccc1O | 33.2 µM (inactive) | 27.3 µM (inactive) | 39.4 µM (inactive) | –
21 | O=C1NC2(CCCCC2)C2CCCCC(O)C12 (stereo unspecified) | > 100 µM (inactive) | > 100 µM (inactive) | > 100 µM (inactive) | –
22 | COC(=O)c1cc2c(s1)C(=O)c1ccccc1-2 | > 100 µM (inactive) | > 100 µM (inactive) | > 100 µM (inactive) | –
23 | COC(=O)c1ccc(NC(=O)c2cc(OC)c(OC)c(OC)c2)cc1 | 1.44 µM (inactive) | – | 0.305 µM (active) | –
24 | CC(C)C(=O)/C=C/c1ccc(Br)cc1 | 9.86 µM (inactive) | – | 15.2 µM (inactive) | –
25 | Cc1ccc(N2Cc3c(ccc4ccccc34)OP2(=O)Oc2ccc(Cl)c(C)c2)cc1 (stereo unspecified) | > 100 µM (inactive) | – | > 67.1 µM (inactive) | –
26 | CCC1=C(C(C)=O)[C@@H]2CCCCC(C(=O)OC)[C@@H]2C1=O (stereo partly specified) | > 100 µM (inactive) | – | > 100 µM (inactive) | –
27 | COc1ccc(C2C3C(=O)C=CC(=O)C3[C@@H]2C)cc1OC (stereo partly specified) | > 100 µM (inactive) | > 100 µM (inactive) | 56.5 µM (inactive) | –
28 | C=C1C(=O)O[C@@H]2C[C@@]3(C)[C@H](O)CCC(=C)[C@@H]3C[C@H]12 [ASPERILIN] | 7.53 µM (inactive) | 13.6 µM (inactive) | 14.4 µM (inactive) | –
